Assay results: ChEMBL document CHEMBL3352691, “Meroterpenoids from the alga-derived fungi Penicillium thomii Maire and Penicillium lividum Westling” (J Nat Prod, 2014)
Structures can show the parent of a compound that is named as a salt. Activity calls are given as the source filed them. No cut-off for these calls is given here.

Key:
JB6 Cl41 = experiment: Inhibition of AP-1 basal transcriptional activity in mouse JB6 Cl41 cells at non cytotoxic concentration after 12 hrs by luciferase reporter gene assay; format: functional, cell-based
MDA-MB-231 = experiment: Cytotoxicity against human MDA-MB-231 cells after 2 hrs by MTS assay; format: functional, cell-based; conditions: MDA-MB-231, 2 h
[1] = Cytotoxicity against mouse JB6 Cl41 cells after 2 hrs by MTS assay; format: cell-based; conditions: JB6 Cl41, 2 h
[2] = Inhibition of endo-1,3-beta-D-glucanase in Pseudocardium sachalinensis preincubated for 15 mins by Nelson method
[3] = Inhibition of AP-1 basal transcriptional activity in mouse JB6 Cl41 cells at 6.25 uM after 12 hrs by luciferase reporter gene assay; format: functional; conditions: JB6 Cl41, 12 h
[4] = Cytotoxicity against mouse JB6 Cl41 cells assessed as reduction in cell viability up to 100 uM after 2 hrs by MTS assay; format: cell-based; conditions: jb6 cl41, 2 h

Structure (SMILES) | inhibition (JB6 Cl41) | IC50 (MDA-MB-231) [µM] | IC50 [1] [µM] | IC50 [2] [µM] | inhibition at 6.25 µM [3] [%] | Activity [4]
COc1c2c(c(C)c3c1C(=O)OC3)O[C@@]1(C)C[C@@H](O)[C@@H](C(C)(C)O)[C@@](C)(CCC(=O)O)[C@H]1C2 | Active | < 10 | < 10 | 1 | – | –
C=C(C)[C@@H]1CC[C@]2(C)Oc3c(C)c4c(c(OC)c3C[C@@H]2[C@]1(C)CCC(=O)O)C(=O)OC4 | – | < 10 | < 10 | 1000 | – | –
COc1c2c(c(C)c3c1C(=O)OC3)O[C@@]1(C)C[C@@H](O)[C@]34O[C@](O)(CC[C@]3(C)[C@H]1C2)OC4(C)C | – | – | – | 250 | – | –
CCCCOC(=O)CC[C@@]1(C)[C@H]2Cc3c(c(C)c4c(c3OC)C(=O)OC4)O[C@@]2(C)C[C@@H](O)[C@H]1C(C)(C)O | Active | < 10 | < 10 | 0.2 | 36.1 | Non-toxic
CCCCOC(=O)CC[C@@]1(C)[C@H]2Cc3c(c(C)c4c(c3OC)C(=O)OC4)O[C@@]2(C)CC[C@H]1C(C)(C)O | – | – | – | 0.1 | 34 | Non-toxic
CC(CC[C@@H](C)[C@H]1CC[C@H]2[C@@H]3C[C@H](OS(=O)(=O)O)[C@H]4C[C@H](OS(=O)(=O)O)[C@@H](OS(=O)(=O)O)C[C@]4(C)[C@H]3CC[C@]12C)C(C)(C)C (some centres not stated) [HALISTANOL SULFATE] | – | – | – | 130 | – | –
COc1c2c(c(C)c3c1C(=O)OC3)O[C@@]1(C)CC[C@@H](C(C)(C)O)[C@@](C)(CCC(=O)O)[C@H]1C2 | – | – | – | 0.01 | – | –
COc1c2c(c(C)c3c1C(=O)OC3)O[C@@]1(C)CC[C@H]3C(C)(C)OC(=O)CC[C@]3(C)[C@H]1C2 | Active | < 10 | < 10 | 0.01 | 36.3 | Non-toxic
C=C(C)[C@@H]1[C@H](O)C[C@]2(C)Oc3c(C)c4c(c(OC)c3C[C@@H]2[C@]1(C)CCC(=O)O)C(=O)OC4 | – | – | – | 0.12 | – | –
COc1c2c(c(C)c3c1C(=O)OC3)O[C@@]1(C)C[C@@H](O)[C@H]3C(C)(C)OC(=O)CC[C@]3(C)[C@H]1C2 | Active | < 10 | < 10 | 2 | 27.6 | Non-toxic
